Test results from ChEMBL document CHEMBL3885861, “Open TG-GATES”.

Organism: Rattus norvegicus
Test: Open TG-GATES - Regimen: Single
Assay type: toxicity, organism-based, Sprague-Dawley
Parameters: regimen Single, gender Male, age 6 weeks
Settings: in vivo, po, 2000 mg/kg, route gavage, dose level High; for APTT / Bas / Eos / Fbg / Hb / Ht / Lym / MCH / MCHC / MCV / Mono / Neu / PT / Plat / RBC / Ret / WBC: tissue Blood; for KIDNEY_L / KIDNEY_R / KIDNEY_TOTAL: tissue Kidney; for LIVER: tissue Liver; for A/G / ALP / ALT / AST / BUN / CRE / Ca / Cl / DBIL / GLC / IP / K / LDH / Na / PL / RALB / TBIL / TC / TG / TP / gamma-GTP: tissue Plasma

In the case of Clc1c(Cl)c(Cl)c(Cl)c(Cl)c1Cl [PERCHLOROBENZENE], the TERMINAL_BW (3 h) is reported as 219.3 g, the APTT (3 h) is reported as 19.9 s and the Bas (3 h) is reported as 0.4%. It also gave an Eos (3 h) of 1%, a Fbg (3 h) of 223.4 mg/dL and a Hb (3 h) of 13.8 g/dL. For the same compound, the Ht (3 h) was 38.5%, the Lym (3 h) was 76.4% and the MCH (3 h) was 22.1 pg. For the same compound, the MCHC (3 h) was 35.7%, the MCV (3 h) was 62 fL and the Mono (3 h) was 2.2%. The Neu (3 h) was 19.2%, the PT (3 h) was 12 s and the Plat (3 h) was 128.8 x10_4/uL. The RBC (3 h) was 621.4 x10_4/ul, the Ret (3 h) was 7.4% and the WBC (3 h) was 104.4 x10_2/uL. It also gave a KIDNEY_L (3 h) of 1 g, a KIDNEY_R (3 h) of 1 g and a KIDNEY_TOTAL (3 h) of 2 g. It also gave an LIVER (3 h) of 10.1 g, an A/G (3 h) of 1.6 and an ALP (3 h) of 1055.8 IU/L. For the same compound, the ALT (3 h) was 37.2 IU/L, the AST (3 h) was 76.8 IU/L and the BUN (3 h) was 10.8 mg/dL. It also gave a CRE (3 h) of 0.4 mg/dL, a Ca (3 h) of 11 mg/dL and a Cl (3 h) of 103 meq/L. It also gave a DBIL (3 h) of 0.062 mg/dL, a GLC (3 h) of 192.6 mg/dL and an IP (3 h) of 9.3 mg/dL. The K (3 h) was 3.8 meq/L, the LDH (3 h) was 231.2 IU/L and the Na (3 h) was 141.4 meq/L. The PL (3 h) was 151 mg/dL, the RALB (3 h) was 3.4 g/dL and the TBIL (3 h) was 0.1 mg/dL. The TC (3 h) was 74.6 mg/dL, the TG (3 h) was 132 mg/dL and the TP (3 h) was 5.6 g/dL. It also gave a gamma-GTP (3 h) of 1.2 IU/L, a TERMINAL_BW (6 h) of 215.7 g and an APTT (6 h) of 19.3 s. For the same compound, the Bas (6 h) was 0.2%, the Eos (6 h) was 1% and the Fbg (6 h) was 239.6 mg/dL. It also gave a Hb (6 h) of 13.6 g/dL, a Ht (6 h) of 39.1% and a Lym (6 h) of 74%. The MCH (6 h) was 21.2 pg, the MCHC (6 h) was 34.6% and the MCV (6 h) was 61 fL. It also gave a Mono (6 h) of 2.6%, a Neu (6 h) of 20.8% and a PT (6 h) of 12 s. For the same compound, the Plat (6 h) was 134.1 x10_4/uL, the RBC (6 h) was 641.6 x10_4/ul and the Ret (6 h) was 7.1%. The WBC (6 h) was 105.2 x10_2/uL, the KIDNEY_L (6 h) was 0.9 g and the KIDNEY_R (6 h) was 0.9 g. For the same compound, the KIDNEY_TOTAL (6 h) was 1.8 g, the LIVER (6 h) was 9 g and the A/G (6 h) was 1.8. The ALP (6 h) was 1089.2 IU/L, the ALT (6 h) was 34 IU/L and the AST (6 h) was 77.2 IU/L. It also gave a BUN (6 h) of 9.4 mg/dL, a CRE (6 h) of 0.4 mg/dL and a Ca (6 h) of 10.6 mg/dL. It also gave a Cl (6 h) of 102.8 meq/L, a DBIL (6 h) of 0.072 mg/dL and a GLC (6 h) of 196.2 mg/dL. For the same compound, the IP (6 h) was 9.3 mg/dL, the K (6 h) was 3.9 meq/L and the LDH (6 h) was 219 IU/L. It also gave a Na (6 h) of 141.2 meq/L, a PL (6 h) of 132.6 mg/dL and an RALB (6 h) of 3.5 g/dL. It also gave a TBIL (6 h) of 0.1 mg/dL, a TC (6 h) of 73.8 mg/dL and a TG (6 h) of 55 mg/dL. For the same compound, the TP (6 h) was 5.5 g/dL, the gamma-GTP (6 h) was 1 IU/L and the TERMINAL_BW (9 h) was 214.9 g. The APTT (9 h) was 17.8 s, the Bas (9 h) was 0% and the Eos (9 h) was 1%. For the same compound, the Fbg (9 h) was 224.6 mg/dL, the Hb (9 h) was 13.5 g/dL and the Ht (9 h) was 38.5%. For the same compound, the Lym (9 h) was 74.2%, the MCH (9 h) was 21.5 pg and the MCHC (9 h) was 35.1%. It also gave an MCV (9 h) of 61.4 fL, a Mono (9 h) of 2.2% and a Neu (9 h) of 21%. It also gave a PT (9 h) of 12 s, a Plat (9 h) of 126.2 x10_4/uL and an RBC (9 h) of 626.2 x10_4/ul. For the same compound, the Ret (9 h) was 7.3%, the WBC (9 h) was 92.9 x10_2/uL and the KIDNEY_L (9 h) was 1 g. It also gave a KIDNEY_R (9 h) of 1 g, a KIDNEY_TOTAL (9 h) of 1.9 g and an LIVER (9 h) of 9 g. It also gave an A/G (9 h) of 1.7, an ALP (9 h) of 944.6 IU/L and an ALT (9 h) of 26.4 IU/L. For the same compound, the AST (9 h) was 68.4 IU/L, the BUN (9 h) was 10.6 mg/dL and the CRE (9 h) was 0.4 mg/dL. The Ca (9 h) was 10.6 mg/dL, the Cl (9 h) was 103.4 meq/L and the DBIL (9 h) was 0.064 mg/dL. It also gave a GLC (9 h) of 207.2 mg/dL, an IP (9 h) of 10.7 mg/dL and a K (9 h) of 4.1 meq/L. It also gave an LDH (9 h) of 216.6 IU/L, a Na (9 h) of 141.2 meq/L and a PL (9 h) of 130.2 mg/dL. The RALB (9 h) was 3.4 g/dL, the TBIL (9 h) was 0.1 mg/dL and the TC (9 h) was 68 mg/dL. It also gave a TG (9 h) of 44 mg/dL, a TP (9 h) of 5.4 g/dL and a gamma-GTP (9 h) of 0.8 IU/L. For the same compound, the TERMINAL_BW (24 h) was 231.5 g, the APTT (24 h) was 18.5 s and the Bas (24 h) was 0.2%. For the same compound, the Eos (24 h) was 1%, the Fbg (24 h) was 233.4 mg/dL and the Hb (24 h) was 13.7 g/dL. The Ht (24 h) was 39.3%, the Lym (24 h) was 76.4% and the MCH (24 h) was 21 pg. For the same compound, the MCHC (24 h) was 34.8%, the MCV (24 h) was 60.4 fL and the Mono (24 h) was 2.6%. For the same compound, the Neu (24 h) was 19%, the PT (24 h) was 11.6 s and the Plat (24 h) was 126.2 x10_4/uL. It also gave an RBC (24 h) of 651.6 x10_4/ul, a Ret (24 h) of 6% and a WBC (24 h) of 100 x10_2/uL. It also gave a KIDNEY_L (24 h) of 1 g, a KIDNEY_R (24 h) of 0.9 g and a KIDNEY_TOTAL (24 h) of 1.9 g. For the same compound, the LIVER (24 h) was 11.1 g, the A/G (24 h) was 1.5 and the ALP (24 h) was 1190.4 IU/L. For the same compound, the ALT (24 h) was 36.2 IU/L, the AST (24 h) was 71.4 IU/L and the BUN (24 h) was 14.8 mg/dL. For the same compound, the CRE (24 h) was 0.4 mg/dL, the Ca (24 h) was 10.7 mg/dL and the Cl (24 h) was 103.4 meq/L. It also gave a DBIL (24 h) of 0.052 mg/dL, a GLC (24 h) of 195.6 mg/dL and an IP (24 h) of 7.4 mg/dL. For the same compound, the K (24 h) was 3.9 meq/L, the LDH (24 h) was 229.6 IU/L and the Na (24 h) was 141.2 meq/L. It also gave a PL (24 h) of 139.6 mg/dL, an RALB (24 h) of 3.3 g/dL and a TBIL (24 h) of 0.1 mg/dL. For the same compound, the TC (24 h) was 74 mg/dL, the TG (24 h) was 108.8 mg/dL and the TP (24 h) was 5.5 g/dL. The gamma-GTP (24 h) was 1.2 IU/L.
